Usually inhibition stands for the drop in the measured response relative to a control, in per cent.

The assay addresses T1, SYK (Homo sapiens, UniProt P43405).
T1 construct: purchased Thermo Fisher Scientific (Life Technologies) SelectScreen
The experiment in a line: SelectScreen Z'LYTE. The assay is classed as biochemical. The method, boiled down:
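SelectScreen broad panel; activity (Z'LYTE, Adapta) plus binding formats. ATP: Km app for CSF1R Z'LYTE; 10 for CAMK1 Adapta. Readout = % per kinase.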

Turning to `CN(C(=O)CN1CCOCC1)c1ccc2sc3c(-c4cccc5c(=O)cc(N6CC7CCC(C6)O7)oc45)cccc3c2c1` [NU5455], the inhibition at 1 µM was -0.2%.

For the origin of these results see PMC6934184, “Selective DNA-PKcs inhibition extends the therapeutic index of localized radiotherapy and chemotherapy” (The Journal of Clinical Investigation, 2019).
